In patent US7691898B2 (Kotobuki Pharmaceutical Co., Ltd., priority 2004, dated 2010):

What was measured:
NaH2PO4 loaded mice = experiment: Inhibitory effect on the elevation of serum phosphate levels in NaH2PO4 loaded mice; format: in vivo; details: Mus musculus; male ddY mice, oral, compound 0.5 hours before oral NaH2PO4 load; serum phosphate AUC up to 4 hours
Procedure: EVALUATION OF INHIBITORY EFFECT ON THE ELEVATION OF SERUM PHOSPHATE LEVELS 1N NaH2PO4 LOADED MICE Male ddY mice, aged 6-7 weeks, were fasted overnight and used as 6 mice/group. The compounds suspended in 0.5% methylcellulose were administered orally at a dose of 100 or 300 mg/10 mL/kg. After 0.5 hours, 50 mg/300 uL/mouse of NaH2PO4 solution was administered orally. Blood samples were taken from retro-orbital venousplexus of the mice before administration of the compounds and 0.5, 1, 2 and 4 hours after the NaH2PO4 administration, and serum phosphate concentration was measured using phospha C-test Wako kit (Wako pure chemicals Co. Ctd.). The area under the serum phosphate concentration-time curve (AUC) up to 4 hours after administration of NaH2PO4 was calculated and the inhibitory effect of serum phosphate levels was evaluated.

[1] = system: Human alkaline phosphatase; experiment: Stability test against human alkaline phosphatase; format: in vitro ADME; details: for amount of compound (HPLC) after incubation with human alkaline phosphatase: 2 U/mL enzyme, 0.1 M carbonate buffer, 37° C.
Procedure: Compound 42 or 2′-PP was dissolved in dimethyl sulfoxide and the concentration was adjusted to 1×10^−2 M. […] The amounts of each compound were measured by the HPLC method (HPLC condition, column: Inertsil ODS-2, eluent: 10 mM phosphate buffer/CH3CN=8/2, wavelength: 230 nm, flow rate: 1 mL/min).

SMILES	ED30 (NaH2PO4 loaded mice) [mg/kg]	also measured
CCOc1ccc(Cc2cc(CP(=O)(O)O)ccc2O)cc1 [Compound 20, [3-(4-Ethoxybenzyl)-4-hydroxybenzyl]phosphonic acid]	244	
CCOc1ccc(Cc2cc(C(=O)P(=O)(O)O)ccc2O)cc1 [Compound 38, [3-(4-Ethoxybenzyl)-4-hydroxybenzoyl]phosphonic acid]	44.5	
CSc1ccc(Cc2cc(C(=O)P(=O)(O)O)ccc2O)cc1 [Compound 42, [4-Hydroxy-3-(4-methylthiobenzyl)benzoyl]phosphonic acid]	33.3	amount of compound (HPLC) after incubation with human alkaline phosphatase ([1]; Time 0 hr): 100%; amount of compound (HPLC) after incubation with human alkaline phosphatase ([1]; Time 0.25 hr): 96.3%; amount of compound (HPLC) after incubation with human alkaline phosphatase ([1]; Time 0.5 hr): 96%; amount of compound (HPLC) after incubation with human alkaline phosphatase ([1]; Time 1 hr): 95.8%; amount of compound (HPLC) after incubation with human alkaline phosphatase ([1]; Time 2 hr): 95.5%; stability against human alkaline phosphatase (in words) ([1]; conclusion from Table 1): stable
CCCOc1ccc(Cc2cc(C(=O)P(=O)(O)O)ccc2O)cc1 [Compound 45, [4-Hydroxy-3-(4-n-propoxybenzyl)benzoyl]phosphonic acid]	20.1	
CC(C)Oc1ccc(Cc2cc(C(=O)P(=O)(O)O)ccc2O)cc1 [Compound 46, [4-Hydroxy-3-(4-i-propoxybenzyl)benzoyl]phosphonic acid]	16.3	
O=C(c1ccc(O)c(Cc2ccc(Oc3ccccc3)cc2)c1)P(=O)(O)O [Compound 49, [4-Hydroxy-3-(4-phenoxybenzyl)benzoyl]phosphonic acid]	17.8	
O=C(c1ccc(O)c(Cc2cc3ccccc3s2)c1)P(=O)(O)O [Compound 54, [3-(Benzo[b]thiophen-2-ylmethyl)-4-hydroxybenzoyl]phosphonic acid]	13.9	
CCOc1ccc(Cc2cc(C(=O)P(=O)(O)O)ccc2OCCO)cc1 [Compound 57, [3-(4-Ethoxybenzyl)-4-(2-hydroxyethoxy)benzoyl]phosphonic acid]	30.9	
CSc1ccc(Cc2cc(C(=O)P(=O)(O)O)ccc2OCCO)cc1 [Compound 60, [4-(2-Hydroxyethoxy)-3-(4-methylthiobenzyl)benzoyl]phosphonic acid]	12.1	
CCOc1ccc(Cc2ccc(P(=O)(O)O)s2)cc1 [Compound 64, 5-(4-Ethoxybenzyl)-2-thiophenephosphonic acid]	165	
CCOc1ccc(Cc2ccc(CP(=O)(O)O)s2)cc1 [Compound 65, [5-(4-Ethoxybenzyl)thiophen-2-ylmethyl]phosphonic acid]	256	
CCOc1ccc(Cc2ccc(C(=O)P(=O)(O)O)s2)cc1 [Compound 70, [5-(4-Ethoxybenzyl)thiophen-2-carbonyl]phosphonic acid]	20.3	
CSc1ccc(Cc2ccc(C(=O)P(=O)(O)O)s2)cc1 [Compound 73, [5-(4-Methylthiobenzyl)thiophen-2-carbonyl]phosphonic acid]	4.5	
O=C(c1ccc(Cc2ccc(Cl)cc2)s1)P(=O)(O)O [Compound 75, [5-(4-Chlorobenzyl)thiophen-2-carbonyl]phosphonic acid]	25.6	
CCSc1ccc(Cc2ccc(C(=O)P(=O)(O)O)s2)cc1 [Compound 76, [5-(4-Ethylthiobenzyl)thiophen-2-carbonyl]phosphonic acid]	2	
CCCCCCCCCCCCCOc1ccc(Cc2ccc(C(=O)P(=O)(O)O)s2)cc1 [Compound 83, [5-(4-n-Tridecanyloxybenzyl)thiophen-2-carbonyl]phosphonic acid]	10.7	
O=C(CCc1ccc(O)cc1)c1c(O)cc(O)cc1OP(=O)(O)O [reference compound]		amount of compound (HPLC) after incubation with human alkaline phosphatase ([1]; Time 0 hr): 100%; amount of compound (HPLC) after incubation with human alkaline phosphatase ([1]; Time 0.25 hr): 31.4%; amount of compound (HPLC) after incubation with human alkaline phosphatase ([1]; Time 0.5 hr): 21.4%; amount of compound (HPLC) after incubation with human alkaline phosphatase ([1]; Time 1 hr): 16.3%; amount of compound (HPLC) after incubation with human alkaline phosphatase ([1]; Time 2 hr): 1.2%
